As a reminder, the ED50 is the dose that gives a 50% effect, or the effect in half of the subjects. A low value points to an effect at a small dose. As usually defined, the Ki is a dissociation constant, usually derived from enzyme kinetics or from competition with a known ligand. The low end stands for a stronger hold on the target, the high end for a looser hold on the target.

Drawing on ChEMBL document CHEMBL1123687, “A new thienylpyrazoloquinoline: a potent and orally active inverse agonist to benzodiazepine receptors” (J Med Chem, 1987), this text covers ED50 and Ki for six compounds.

Assay [1] has as its system Mus musculus. Description: Ability to facilitate pentylenetetrazole (PTZ) induced convulsions n mice after intravenous administration at 90 mg/Kg; Range is between (0.09-0.50). Type of assay: functional.
The test system of assay [2] is Mus musculus. As to the kind of experiment: Ability to facilitate pentylenetetrazole (PTZ) induced convulsions n mice after peroral administration at 90 mg/Kg; Range is between (5.43-33.74). Type of assay: functional. The conditions noted are these: po.
The species named for assay [3] is Mus musculus. As to the kind of experiment: animal or person. Particulars: po.
In assay [4] the target is GABA-A receptor; anion channel. As to the kind of experiment: Displacement of [3H]-diazepam from GABA-A benzodiazepine receptor of rat cerebral cortex. The class given is tissue-based.
The test system of assay [5] is Mus musculus. As to the kind of experiment: Ability to inhibit pentylenetetrazole (PTZ) induced convulsions n mice after peroral administration at 125 mg/Kg; Range is between (2.70-7.09). Particulars: po. The class given is functional.
The subject of assay [6] is Mus musculus. As to the kind of experiment: Ability to facilitate pentylenetetrazole (PTZ) induced convulsions in mice after intravenously administration at 90 mg/Kg; Range is between (0.24-0.40). The conditions noted are these: iv. The class given is functional.
In assay [7] the test system is Mus musculus. As to the kind of experiment: Ability to inhibit pentylenetetrazole (PTZ) induced convulsions in mice after intravenous administration at 75 mg/Kg; Range is between (0.34-0.73). The class given is functional.
Assay [8] deals with Mus musculus. Description: Ability to inhibit pentylenetetrazole (PTZ) induced convulsions in mice after peroral administration at 90 mg/Kg. Type of assay: functional. The conditions noted are these: po.
In assay [9] the test system is Mus musculus. Description: Ability to inhibit pentylenetetrazole (PTZ) induced convulsions in mice after peroral administration at 75 mg/Kg; […]. Particulars: po. Type of assay: functional.
Assay [10] concerns Mus musculus. As to the kind of experiment: Ability to inhibit pentylenetetrazole (PTZ) induced convulsions in mice after intravenously administration at 75 mg/Kg; Range is between (0.62-1.62). Type of assay: functional. Particulars: iv.
For assay [11], the system named is Mus musculus. As to the kind of experiment: Ability to facilitate pentylenetetrazole (PTZ) induced convulsions in mice after peroral administration at 50 mg/Kg. Particulars: po. The class given is functional.
Assay [12] concerns Mus musculus. As to the kind of experiment: Ability to facilitate pentylenetetrazole (PTZ) induced convulsions in mice after intravenously administration at 90 mg/Kg; Range is between (0.27-0.71). The class given is functional. Particulars: iv.

Molecules are shown by their SMILES.

As to `O=C1C2C=Nc3ccccc3C2=NN1c1ccccc1` (centres undefined) [CGS-8216], the 50% effective dose (ED50) in assay [1] came out at 0.2 mg/kg; in assay [2] it was 12.8 mg/kg.
For the compound `CN1C(=O)CN=C(c2ccccc2)c2cc(Cl)ccc21` [DIAZEPAM], it took a dose of 0.67 mg/kg to reach the 50% effect level in assay [3] (ED50).
In turn, `Cc1ccc(-n2[nH]c3c(cnc4ccccc43)c2=O)s1` yielded a Ki in assay [4] of 0.32 nM. The compound also displayed an ED50 in assay [5] of 4.59 mg/kg.
For the compound `COC(=O)c1cc2c(cn1)[nH]c1ccccc12` [BETA-CCM], the affinity in [4] corresponds to a Ki of 1.47 nM. In addition, the ED50 in assay [6] turned out to be 0.29 mg/kg; in assay [7], 0.49 mg/kg.
In assay [4], `Cc1cc(-n2[nH]c3c(cnc4ccccc43)c2=O)cs1` came in with a Ki of 0.316 nM. In addition, the ED50 in [8] was 0.92 mg/kg; in assay [9], 1.67 mg/kg.
Regarding `CCOC(=O)c1cc2c(cn1)[nH]c1ccccc12`, the values for the ED50 in [10], in assay [11] and in assay [12] were 1 mg/kg, 37.5 mg/kg and 0.46 mg/kg, respectively.
